Experimental data published in ChEMBL document CHEMBL1201862, “PubChem BioAssay data set” (2004).
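These data come from cells grown in 96-well plates and exposed to compound for 48 hours at five concentrations. GI50 marks 50% less growth.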 Active and inactive are the calls of the source. No stated cut-off is given here; in the data, active = GI50 up to about 1.1 µM and inactive = higher.

Tests used:
Assay in all cases: DTP human tumour cell line panel, 48 h
[1] = tested on: COLO 205
[2] = tested on: OVCAR-5
[3] = tested on: SK-MEL-28
[4] = tested on: SW-620
[5] = tested on: MDA-MB-435
[6] = tested on: NCI/ADR-RES
[7] = tested on: EKVX
[8] = tested on: NCI-H460
[9] = tested on: SF-295
[10] = tested on: UO-31
[11] = tested on: SK-MEL-2
[12] = tested on: NCI-H522
[13] = tested on: UACC-62
[14] = tested on: SF-539
[15] = tested on: A549
[16] = tested on: KM12
[17] = tested on: K562
[18] = tested on: OVCAR-8
[19] = tested on: MOLT-4
[20] = tested on: MDA-N
[21] = tested on: Hs-578T
[22] = tested on: BT-549
[23] = tested on: HOP-62
[24] = tested on: CCRF-CEM
[25] = tested on: SK-OV-3
[26] = tested on: 786-0
[27] = tested on: OVCAR-4
[28] = tested on: HCC 2998
[29] = tested on: PC-3
[30] = tested on: HCT-116
[31] = tested on: UACC-257
[32] = tested on: HOP-92
[33] = tested on: NCI-H226
[34] = tested on: T47D
[35] = tested on: HT-29
[36] = tested on: M14
[37] = tested on: HCT-15
[38] = tested on: SN12C
[39] = tested on: U-251
[40] = tested on: SF-268
[41] = tested on: SNB-19
[42] = tested on: CAKI-1
[43] = tested on: SK-MEL-5
[44] = tested on: TK-10
[45] = tested on: LOX IMVI
[46] = tested on: NCI-H23
[47] = tested on: OVCAR-3
[48] = tested on: RPMI-8226
[49] = tested on: MCF7
[50] = tested on: IGROV-1
[51] = tested on: SR
[52] = tested on: RXF 393
[53] = tested on: A498
[54] = tested on: ACHN
[55] = tested on: DU-145
[56] = tested on: MDA-MB-231
[57] = tested on: SNB-75

NC(=O)C(=CNC(=S)Nc1ccc(S(=O)(=O)Nc2ccccn2)cc1)C(N)=O
GI50 [1]: > 100 µM (inactive)
GI50 [2]: > 100 µM (inactive)
GI50 [3]: > 100 µM (inactive)
GI50 [4]: 39.3 µM (inactive)
GI50 [5]: > 100 µM (inactive)
GI50 [6]: 55.3 µM (inactive)
GI50 [7]: > 100 µM (inactive)
GI50 [8]: > 100 µM (inactive)
GI50 [9]: > 100 µM (inactive)
GI50 [10]: > 100 µM (inactive)
GI50 [11]: > 100 µM (inactive)
GI50 [12]: 50.5 µM (inactive)
GI50 [13]: > 100 µM (inactive)
GI50 [14]: > 100 µM (inactive)
GI50 [15]: > 100 µM (inactive)
GI50 [16]: > 100 µM (inactive)
GI50 [17]: 40.6 µM (inactive)
GI50 [18]: > 100 µM (inactive)
GI50 [19]: 1.52 µM (inactive)
GI50 [20]: > 93.8 µM (inactive)
GI50 [21]: > 100 µM (inactive)
GI50 [22]: > 100 µM (inactive)
GI50 [23]: > 100 µM (inactive)
GI50 [24]: 30 µM (inactive)
GI50 [25]: > 100 µM (inactive)
GI50 [26]: > 100 µM (inactive)
GI50 [27]: > 100 µM (inactive)
GI50 [28]: > 10 µM (inactive)
GI50 [29]: > 100 µM (inactive)
GI50 [30]: 46.7 µM (inactive)
GI50 [31]: > 100 µM (inactive)
GI50 [32]: > 100 µM (inactive)
GI50 [33]: > 100 µM (inactive)
GI50 [34]: > 100 µM (inactive)
GI50 [35]: > 100 µM (inactive)
GI50 [36]: > 100 µM (inactive)
GI50 [37]: > 78 µM
GI50 [38]: > 100 µM (inactive)
GI50 [39]: > 100 µM (inactive)
GI50 [40]: > 100 µM (inactive)
GI50 [41]: > 100 µM (inactive)
GI50 [42]: > 100 µM (inactive)
GI50 [43]: > 100 µM (inactive)
GI50 [44]: > 100 µM (inactive)
GI50 [45]: > 93.1 µM (inactive)
GI50 [46]: > 100 µM (inactive)
GI50 [47]: > 100 µM (inactive)
GI50 [48]: > 100 µM (inactive)
GI50 [49]: > 83.2 µM (inactive)
GI50 [50]: > 100 µM (inactive)
GI50 [51]: 41.5 µM (inactive)
GI50 [52]: > 100 µM (inactive)
GI50 [53]: > 100 µM (inactive)
GI50 [54]: > 100 µM (inactive)
GI50 [55]: > 100 µM (inactive)
GI50 [56]: > 100 µM (inactive)
GI50 [57]: > 100 µM (inactive)

N#CCCN(CCC#N)c1ccc(C(=N/c2ccc(F)cc2)/N=N/c2ccccc2)cc1
GI50 [1]: > 100 µM (inactive)
GI50 [2]: > 100 µM (inactive)
GI50 [3]: > 100 µM (inactive)
GI50 [4]: > 100 µM (inactive)
GI50 [5]: > 100 µM (inactive)
GI50 [6]: > 100 µM (inactive)
GI50 [7]: > 100 µM (inactive)
GI50 [8]: 60.1 µM (inactive)
GI50 [9]: 32.8 µM (inactive)
GI50 [10]: > 100 µM (inactive)
GI50 [11]: 93.3 µM (inactive)
GI50 [12]: 21.7 µM (inactive)
GI50 [13]: > 100 µM (inactive)
GI50 [14]: > 100 µM (inactive)
GI50 [15]: 37.8 µM (inactive)
GI50 [16]: 35.5 µM (inactive)
GI50 [17]: > 100 µM (inactive)
GI50 [18]: > 100 µM (inactive)
GI50 [19]: > 100 µM (inactive)
GI50 [20]: > 100 µM (inactive)
GI50 [21]: > 100 µM (inactive)
GI50 [22]: 34 µM (inactive)
GI50 [23]: > 100 µM (inactive)
GI50 [24]: < 0.01 µM (active)
GI50 [25]: > 100 µM (inactive)
GI50 [26]: > 100 µM (inactive)
GI50 [27]: 93.5 µM (inactive)
GI50 [28]: > 100 µM (inactive)
GI50 [29]: > 100 µM (inactive)
GI50 [30]: > 100 µM (inactive)
GI50 [31]: 60.5 µM (inactive)
GI50 [32]: > 100 µM (inactive)
GI50 [33]: > 100 µM (inactive)
GI50 [34]: 15.1 µM (inactive)
GI50 [35]: > 100 µM (inactive)
GI50 [36]: > 100 µM (inactive)
GI50 [37]: > 100 µM
GI50 [38]: > 100 µM (inactive)
GI50 [39]: 50.9 µM (inactive)
GI50 [40]: > 100 µM (inactive)
GI50 [41]: > 100 µM (inactive)
GI50 [42]: > 100 µM (inactive)
GI50 [43]: 83.6 µM (inactive)
GI50 [44]: > 100 µM (inactive)
GI50 [46]: 96.8 µM (inactive)
GI50 [47]: 95.3 µM (inactive)
GI50 [48]: > 100 µM (inactive)
GI50 [49]: > 100 µM (inactive)
GI50 [50]: > 100 µM (inactive)
GI50 [51]: 33 µM (inactive)
GI50 [52]: 2.67 µM (inactive)
GI50 [53]: > 100 µM (inactive)
GI50 [54]: > 100 µM (inactive)
GI50 [55]: > 100 µM (inactive)
GI50 [56]: 82.6 µM (inactive)
GI50 [57]: 57.5 µM (inactive)
